We go through 27 compounds from US9012481B2, “Benzoarylureido compounds, and composition for prevention or treatment of neurodegenerative brain disease containing the same” (Korea Institute of Science and Technology, priority 2009, dated 2015).

Each structure is given as a SMILES string. Where two headings read alike, the source gives them in different places.

One series has as its system BV-2 cells. Description: Cell viability (MTT analysis) of beta-amyloid treated BV-2 cells. The format is cell-based. To be noted: Mus musculus, BV-2 cells, average of three experiments; for viability at 0.1 µM: compound 100 nM for 24 hours after 50 μM beta-amyloid for 2 hours; for viability at 1 µM: compound 1000 nM for 24 hours after 50 μM beta-amyloid for 2 hours; for viability at 50 µM: compound 50 μM for 24 hours after 50 μM beta-amyloid for 2 hours. As for the experimental part: Beta-amyloid (Aβ25-35, Sigma Chemical Co., St. Louis, Mo., USA) was diluted with aseptic desalted water and preservative solution (1 mM, GIBCO), and kept in aliquots at −70° C. To the treatment of beta-amyloid, beta-amyloid preservative solution was diluted to desired concentrations in a treatment medium (DMEM, GIBCO). The reagents were newly provided as a preservative solution (10 mM) under DMSO (dimethylsulfoxide), and diluted in treatment medium to desired concentrations.
BV-2 microglia cells (allotted from Pharmacology Division of Ajou University) were cultivated in DMEM (Dulbecco's Modified Eagle's Medium) supplemented with 5% fetal bovine serum (Invitrogen, Carlsbad, Calif., USA), sou/Ml penicillin (Invitrogen, Carlsbad, Calif., USA), and 50 μg/Ml streptomycin (Invitrogen, Carlsbad, Calif., USA) under the atmosphere condition with 5% CO2 and 95% air at 37° C. The medium was replaced once a day, the cells were plate-cultured in a density according to the scale of each experiment.
BV-2 cells were plate-cultured in 96-well plate at the density of 5×10^4, the cell viability was measured according to a conventional MTT analysis method and lactate dehydrogenase (LDH) analysis method. The MTT analysis depends on the metabolism ability of mitochondria of living cell, and reflexes intracellular redox states. The cultured cells were treated with MTT a solution (final concentration: 1 mg/Ml) for 4 hours. Deep blue formazan crystal generated in the original cells was dissolved in a lysis buffer, and then, the absorbance was detected at 595 nm with microplate reader. The LDH activity released from the culture medium was detected, which was evaluated as a cell death index. The culture medium was added to a reagent (test, Sigma Chemical Co, St. Louis, Mo., USA) containing sodium lactate, NADH and sodium pyruvate, and then, the absorbance reduction by NADH at 340 nm was measured. The result was calculated assuming that the LDH activity in homogenate solution of the non-treated control is 100%.
[…] For microscope analysis, BV-2 cells were used in 6-well plate at the density of 5×10^5 cells/well, for MTT analysis, BV-2 cells were used in 96-well plate at the density of 5×10^4 cells/well.
The obtained prevention effects of KHG25967 compound on toxicity induced by beta-amyloid in BV-2 cells were FIGS. 1A and 1b.
For MTT analysis, BV-2 cells were used on 96-well plate in the density of 5×10^4 cells/well. The quantitative analysis results (unit: %) for the cell viability obtained by MTT analysis were shown in Table 2, wherein the values are represented by the average of three experiments per each concentration.

[1] abbreviates: read-out: cell viability by MTT analysis.
Where [2] appears, read: compound 500 nM for 24 hours after 50 μM beta-amyloid for 2 hours, read-out: cell viability by MTT analysis.
[3] abbreviates: BV-2, read-out: cell viability by MTT analysis, compound 500 nM for 24 hours after 50 μM beta-amyloid for 2 hours.

The compound `CCOC(=O)CCNC(=O)Nc1nc2ccccc2n1C` [KHG26030, ethyl 3-(3-(1-methyl-1H-benzo[d]imidazole-2-yl)ureido)propanoate] gave a melting point of 105 °C. In the series with BV-2 cells, this compound came in with a viability at 0.1 µM of 60% and a viability at 1 µM of 76%. In addition, the viability at 50 µM in the series on BV-2 cells (setting [1]) is 75%.
The compound `Cn1c(NC(=O)NCC(=O)O)nc2ccccc21` [KHG26280, 2-(3-(1-methyl-1H-benzo[d]imidazole-2-yl)ureido)acetic acid] registered a melting point of 200 °C. Also, the viability at 0.5 µM in the series with BV-2 cells (setting [2]) is 33%.
On to `O=C(NCc1nn[nH]n1)Nc1nc2ccccc2s1` [KHG26345], for which the melting point was determined as 249 °C. In addition, the viability at 0.5 µM in the series on BV-2 cells (setting [2]) was 63%.
Consider `CCOC(=O)CCCNC(=O)Nc1nc2ccccc2s1` [KHG26004, ethyl 4-(3-benzo[d]thiazole-2-ylureido)butanoate], for which the melting point was determined as 278 °C. Further, in the series on BV-2 cells (setting [1]), the viability at 50 µM worked out at 37%.
For the compound `CCOC(=O)CNC(=S)Nc1nc2c(C)cccc2s1` [KHG26306, ethyl 2-(3-(4-methylbenzo[d]thiazole-2-yl)thioureido)acetate], the melting point worked out at 219 °C. In the series with BV-2 cells (setting [2]), the viability at 0.5 µM was found to be 62%.
The like results for `CCOC(=O)CNC(=S)Nc1nc2ccc(OCC)cc2s1` [KHG26309, ethyl 2-(3-(6-ethoxybenzo[d]thiazole-2-yl)thioureido)acetate] were, in that order, 183 °C and 65%.
With `CCOC(=O)CNC(=O)Nc1nc2ccccc2n1C` [KHG26029, ethyl 2-(3-(1-methyl-1H-benzo[d]imidazole-2-yl)ureido)acetate], the melting point is 157 °C. In the series with BV-2 cells, the viability at 0.1 µM turned out to be 86% and the viability at 1 µM is 73%. In the series on BV-2 cells (setting [1]), the viability at 50 µM turned out to be 70%.
`CCOC(=O)CNC(=S)Nc1nc2ccccc2s1` [KHG26304, ethyl 2-(3-benzo[d]thiazole-2-ylthioureido)acetate] returned a melting point of 204 °C. Also, the viability at 0.5 µM in the series with BV-2 cells (setting [2]) is 41%.
In turn, `CCOC(=O)CNC(=S)Nc1nc2ccccc2n1C` [KHG26303, ethyl 2-(3-(1-methyl-1H-benzo[d]imidazole-2-yl)thioureido)acetate] came in with a melting point of 185 °C. The viability at 0.5 µM in the series with BV-2 cells (setting [2]) was found to be 48%.
Consider `O=C(O)CNC(=S)Nc1nc2ccc(Cl)cc2s1` [KHG26341, 2-(3-(6-chlorobenzo[d]thiazole-2-yl)thioureido)acetic acid], for which the melting point was 193 °C. Further, the viability at 0.5 µM in the series with BV-2 cells (setting [2]) came out at 67%.
Taken in the same sequence, the figures for `CCOC(=O)CNC(=S)Nc1nc2ccc(Cl)cc2s1` [KHG26311, ethyl 2-(3-(6-chlorobenzo[d]thiazole-2-yl)thioureido)acetate] were 184 °C and 67%.
For the compound `CCOC(=O)CNC(=S)Nc1nc2c(Cl)cccc2s1` [KHG26312, ethyl 2-(3-(4-chlorobenzo[d]thiazole-2-yl)thioureido)acetate], the melting point is 198 °C. In addition, the viability at 0.5 µM in the series with BV-2 cells (setting [2]) was 55%.
The like results for `CCOC(=O)CNC(=S)Nc1nc2ccc(OC)cc2s1` [KHG26308, ethyl 2-(3-(6-methoxybenzo[d]thiazole-2-yl)thioureido)acetate] were, in that order, 324 °C and 44%.
For the compound `CCOC(=O)CNC(=O)Nc1nc2ccc(OC)cc2s1` [KHG26019, ethyl 2-(3-(6-methoxybenzo[d]thiazole-2-yl)ureido)acetate], the melting point turned out to be 281.9 °C. In the series with BV-2 cells (setting [1]), the viability at 50 µM came out at 47%.
Take `CCOC(=O)CNC(=S)Nc1nc2ccc(F)cc2s1` [KHG26310, ethyl 2-(3-(6-fluorobenzo[d]thiazole-2-yl)thioureido)acetate]: the melting point stood at 160 °C. Further, the viability at 0.5 µM in the series on BV-2 cells (setting [2]) is 30%.
Compound `CCCCOC(=O)CNC(=O)Nc1nc2ccccc2s1` [KHG25954, butyl 2-(3-benzo[d]thiazole-2-ylureido)acetate] showed a melting point of 294 °C. Further, the viability at 50 µM with BV-2 cells (setting [1]) was 48%.
With `O=C(NCCO)Nc1nc2ccccc2s1` [KHG26279, 1-(benzo[d]thiazole-2-yl)-3-(2-hydroxyethyl)urea], the melting point amounted to 223 °C. Moreover, the viability at 0.5 µM in the series on BV-2 cells (setting [2]) is 36%.
Taken in the same sequence, the figures for `COCCNC(=O)Nc1nc2ccccc2s1` [KHG26344, 1-(benzo[d]thiazole-2-yl)-3-(2-methoxyethyl)urea] were 257 °C and 58%.
In turn, `Cn1c(NC(=O)NCC(=O)[O-])nc2ccccc21.[K+]` [KHG26172, potassium 2-(3-(1-methyl-1H-benzo[d]imidazole-2-yl)ureido)acetate] yielded a melting point of 229 °C. In addition, the viability at 0.5 µM in the series with BV-2 cells (setting [3]) came out at 68%.
`CCOc1ccc2nc(NC(=S)NCC(=O)O)sc2c1` [KHG26336, 2-(3-(6-ethoxybenzo[d]thiazole-2-yl)thioureido)acetic acid]: the melting point stood at 200 °C. For the same compound, the viability at 0.5 µM in the series with BV-2 cells (setting [2]) came to 67%.
Regarding `O=C([O-])CNC(=O)Nc1nc2c(Cl)cccc2s1.[K+]` [KHG26178, potassium 2-(3-(4-chlorobenzo[d]thiazole-2-yl)ureido)acetate], the melting point is 259 °C. Also, the viability at 0.5 µM in the series on BV-2 cells (setting [3]) was found to be 59%.
With `O=C([O-])CCCNC(=O)Nc1nc2ccccc2s1.[K+]` [KHG26221, potassium 4-(3-benzo[d]thiazole-2-ylureido)butanoate], the melting point came out at 241 °C. For the same compound, the viability at 0.5 µM in the series with BV-2 cells (setting [3]) came to 44%.
For the compound `Cn1c(NC(=S)NCC(=O)O)nc2ccccc21` [KHG26334, 2-(3-(1-methyl-1H-benzo[d]imidazole-2-yl)thioureido)acetic acid], the melting point was 172 °C. The viability at 0.5 µM in the series with BV-2 cells (setting [2]) is 75%.
`CCOC(=O)CCCNC(=O)Nc1nc2ccccc2n1C` [KHG26031, ethyl 4-(3-(1-methyl-1H-benzo[d]imidazole-2-yl)ureido)butanoate] had a melting point of 81 °C. Further, the viability at 50 µM in the series on BV-2 cells (setting [1]) is 56%.
`CCOC(=O)CCCNC(=O)Nc1nc2ccccc2[nH]1` [KHG26028, ethyl 4-(3-1H-benzo[d]imidazole-2-ylureido)butanoate] returned a melting point of 277 °C. Also, the viability at 50 µM with BV-2 cells (setting [1]) worked out at 34%.
For the compound `O=C(O)CCCNC(=O)Nc1nc2ccccc2s1` [KHG26025, 4-(3-benzo[d]thiazole-2-ylureido)butanoic acid], the melting point was found to be 210 °C. In the series on BV-2 cells, this compound showed a viability at 0.1 µM of 73% and a viability at 1 µM of 89%. Besides, the viability at 50 µM in the series with BV-2 cells (setting [1]) worked out at 90%.
As for `O=C(O)CCNC(=O)Nc1nc2ccccc2s1` [KHG26026, 3-(3-benzo[d]thiazole-2-ylureido)propanic acid], the melting point is 243 °C. Also, in the series with BV-2 cells, the viability at 0.1 µM was determined as 66% and the viability at 1 µM was found to be 85%. The viability at 50 µM in the series on BV-2 cells (setting [1]) was determined as 82%.

One may read the viability as a per cent measure of how many cells are alive, often set against a control. Usually melting point stands for the temperature, or range, at which the solid turns liquid.
